Tested on: Oryza sp.
Experiment: Compound was evaluated for protecting rice plants from infestation by blast upon foliar application.
Type: functional

How did the ED90 turn out when `C[C@@H](NC(=O)[C@]1(C(F)(F)F)C[C@](C)(Cl)C1)c1ccc(Br)cc1` (stereo in doubt; 3b) was run?
The ED90 was 40 p.p.m.

Target: T1, Scytalone dehydratase (Magnaporthe oryzae (strain 70-15 / FGSC 8958) (Rice blast fungus)(Pyricularia oryzae), UniProt P56221)
T1 sequence (P56221 whole entry): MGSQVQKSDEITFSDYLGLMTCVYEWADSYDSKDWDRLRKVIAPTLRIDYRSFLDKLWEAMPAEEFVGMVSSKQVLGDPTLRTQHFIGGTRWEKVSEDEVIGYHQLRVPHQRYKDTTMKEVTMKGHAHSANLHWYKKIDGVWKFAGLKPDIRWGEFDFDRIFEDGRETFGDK
Experiment: Inhibitory activity against Scytalone dehydratase
Set-up: species or system Pyricularia grisea

With `CC(CCc1ccccc1)NC(=O)C1(C(F)(F)F)CC(C)(Cl)C1` (configuration not stated) as the compound, how does the Ki read?
The Ki was 8.6 nM.

For `C[C@H](COc1ccccc1F)NC(=O)C1(C(F)(F)F)CC(C)(Cl)C1` (some centres not stated), which Ki is on record?
Its Ki is 0.78 nM.

For `C[C@@H](NC(=O)[C@]1(C(F)(F)F)C[C@](C)(Cl)C1)c1ccc(Br)cc1` (stereo in doubt; 3a), which Ki is on record?
Its Ki is 2.3 nM.

Which Ki does the source give for `C[C@@H](NC(=O)C1(C(F)(F)F)CC(C)(Cl)C1)c1ccc(Br)cc1` (some centres not stated) here?
The Ki was 0.049 nM.

Which Ki does the source give for `CC(NC(=O)C1(C(F)(F)F)CC(C)(Cl)C1)c1ccc(Oc2ccccc2)cc1` (configuration not stated) here?
The Ki was 5.6 nM.

For `C[C@@H](NC(=O)[C@]1(C(F)(F)F)C[C@](C)(Cl)C1)c1ccc(Br)cc1` (stereo in doubt; 3b), which Ki is on record?
The Ki was 0.026 nM.

From ChEMBL document CHEMBL1132522, “A new potent inhibitor of fungal melanin biosynthesis identified through combinatorial chemistry” (Bioorg Med Chem Lett, 1999)
